Data: patent US8071540B2, “Virus derived antimicrobial peptides” (priority 2007, dated 2011)
Entries after “also recorded” stand apart in the source; their conditions may differ. Where no end group is shown, it is not given here.

Legend:
Pseudomonas aeruginosa [1] = assay: Bacterial lysis (broth dilution) assay, MBC; type: cell-based; set-up: MBC, Psuedomonas aeruginosa, 0 mM NaCl / MBC, Psuedomonas aeruginosa, 150 mM NaCl: unit not given here; conditions: for P. aeruginosa killing, influence of physiologic NaCl: phosphate buffer with 150 mM NaCl versus low salt; for MBC, Psuedomonas aeruginosa, 0 mM NaCl: 0 mM NaCl (10 mM phosphate buffer); for MBC, Psuedomonas aeruginosa, 0 mM NaCl / MBC, Psuedomonas aeruginosa, 150 mM NaCl: 99.9% killing; for MBC, Psuedomonas aeruginosa, 150 mM NaCl: 150 mM NaCl (physiologic)
Staphylococcus aureus [2] = assay: Bacterial lysis (broth dilution) assay, MBC; type: cell-based; conditions: for MBC, Staphylococcus aureus, 0 mM NaCl: 0 mM NaCl (10 mM phosphate buffer); for MBC, Staphylococcus aureus, 0 mM NaCl / MBC, Staphylococcus aureus, 150 mM NaCl: 99.9% killing; for MBC, Staphylococcus aureus, 150 mM NaCl: 150 mM NaCl (physiologic)
From the text: The assays for growth inhibition of a microbial target can be used to derive a minimum bactericidal concentration (MBC) value for the peptide, i.e., the concentration of peptide required to kill 99.9% (3-log decrease) of the microbial sample being tested. This value is well known to those in the art as representative of the effectiveness of a particular antimicrobial agent (e.g., an antibiotic) against a particular organism or group of organisms. In assays to detect the MBC of a peptide, growth inhibition of a bacterial population also can be measured with reference to the number of colony forming units (cfu) after exposure to a peptide relative to a control experiment without a peptide.
Bacterial lysis assay. Bacterial lysis assays were conducted in a manner similar to that described previously (Lehrer, R. I., M. E. Selsted, D. Szklarek, and F. J. 1983. Infect. Immun. 42: 10-4, 1983; Miller, M. A., R. F. Garry, J. M. Jaynes, and R. C. Montelaro, AIDS Res Hum Retroviruses 7:511-519, 1991). Bacterial suspensions were cultured in Luria-Bertani Broth to mid-log growth phase and washed by two cycles of centrifugation and suspension in 10 mM phosphate buffer. The Abs600 of the suspension was adjusted with 10 mM phosphate buffer such that, upon dilution, 5-10×10^5 cfu/mL would be treated in the assay. Bacteria were incubated for 1 h with two-fold dilutions of peptides (100 μM to 100 nM) in 96-well plates using 10 mM phosphate buffer, pH 7.2, as a diluent. Ten-fold dilutions of bacteria were performed to 1:1 000; a 100 μl aliquot from each condition was spread on the surface of tryptic soy agar plates (Difco, Detroit, Mich.) which were incubated overnight. Colonies of surviving bacteria (cfu, colony-forming units) were counted and compared to untreated controls to determine the amount of peptide-induced killing under each condition. Log killing is defined as the log of the ratio of cfu present before and after treatment with peptide. The minimal bactericidal concentration, MBC, is the peptide concentration at which 99.9% (three log) killing is achieved (Pearson et al., Antimicrob. Agents Chemother. 18: 699-708, 1980).
Results. Representative gram positive (S. aureus) and gram negative (P. aeruginosa) clinical isolates were used as the index bacteria to survey the peptides described herein.
A limitation of many host-derived antimicrobial peptides is their decreased activity at physiologic (150 mM) NaCl concentration. See Friedrich et al., Antimicrobial Agents and Chemotherapy 43:1542-1548. The peptides WLSA-5 (SEQ ID NO: 3) and LL37 were tested against the two index strains at physiologic NaCl. […] The activity of antimicrobial peptides described herein were compared to an expanded list of clinical bacterial isolates. These are summarized in Table 2 by comparing their MBCs in phosphate buffer alone (low salt) and phosphate buffer containing 150 mM NaCl (physiologic conditions). Inspection of this table would lead one skilled in the art to conclude that the activity of antimicrobial peptides described herein compare favorably to the host derived antimicrobial peptides as it relates to the spectrum and potency of antimicrobial activity.

[3] = test system: Methicillin Resistant S. aureus; type: cell-based, Staphylococcus aureus; set-up: unit not given here; conditions: 99.9% killing; for MBC, Methicillin Resistant S. aureus, 0 mM NaCl: 0 mM NaCl (10 mM phosphate buffer); for MBC, Methicillin Resistant S. aureus, 150 mM NaCl: 150 mM NaCl (physiologic)
[4] = molecular target: Ca^2+ saturated calmodulin (Homo sapiens, UniProt P0DP23); conditions: host cell Ca^2+ saturated calmodulin; cited from earlier work
[5] = test system: diverse gram-negative and -positive bacterial isolates; conditions: cited from earlier work
Pseudomonas aeruginosa [6] = conditions: 1×10^5 colony-forming units; cited from earlier work
Staphylococcus aureus [7] = conditions: 1×10^5 colony-forming units; cited from earlier work
[8] = test system: HIV-1 (strain IIIB) virions; assay: Suppression of HIV-1 infectivity, p24 antigen in PHA stimulated PBMCs; type: cell-based; conditions: 1 and 0.1 μM
Experimental: In this example human peripheral blood […] (PBMCs) were obtained from healthy volunteers and maintained in culture at a concentration of 1×10^5 viable cells per mL of medium. These cells were stimulated by the addition of phytohemagglutinin (PHA). To this a standardized titer of purified HIV-1 (strain IIIB) virions was added to PBMCs to generate a p24 antigen signal of 14,000 pg/mL five days post exposure to virus.
In order to test whether the LLP peptide, LSA-5 (SEQ ID NO: 2) was able to suppress HIV-1 activity, LSA-5 at concentrations ranging between 0.1 and 100 μM were incubated with the standard virus titer determined as above for 30 min. Virions surviving peptide exposure were isolated by ultracentrifugation at 100,000×g for 60 min. Viral pellets were used to infect PHA stimulated PBMCs prepared as described above. Five days post infection the level of p24 antigen was determined and compared to a non-peptide treated control. The data was expressed as the ratio of p24 antigen associated with peptide-treated vs. non-peptide treated HIV-1 infected cells to obtain a value referred to as percent suppression.

S. aureus [9] = assay: Rabbit joint model of septic arthritis
S. epidermidis = assay: In vitro activity against S. epidermidis
S. aureus [10] = assay: Bactericidal activity in human synovial fluid
P. aeruginosa = assay: LSA-5 bound to Affigel 15 column, viable bacteria in eluant; conditions: same column repeatedly exposed to bacterial suspensions
Burkholderia cepacia = type: cell-based; conditions: standard broth dilution, FIG. 7
[11] = test system: P. aeruginosa attached to differentiated human bronchial epithelial cells; assay: CF cell culture model: killing of bacteria bound to airway epithelial cells; type: cell-based, Pseudomonas aeruginosa; conditions: increasing peptide concentration, co-culture, FIG. 9
[12] = test system: differentiated primary human airway epithelial cells; assay: CF cell culture model: transepithelial resistance as peptide toxicity

| Substance | MBC, Psuedomonas aeruginosa, 0 mM NaCl (Pseudomonas aeruginosa [1]) | MBC, Psuedomonas aeruginosa, 150 mM NaCl (Pseudomonas aeruginosa [1]) | MBC, Staphylococcus aureus, 0 mM NaCl (Staphylococcus aureus [2]) | MBC, Staphylococcus aureus, 150 mM NaCl (Staphylococcus aureus [2]) | MBC, Methicillin Resistant S. aureus, 0 mM NaCl [3] | MBC, Methicillin Resistant S. aureus, 150 mM NaCl [3] | further results |
| --- | --- | --- | --- | --- | --- | --- | --- |
| LL37: human cathelicidin, 37-amino acid amphiphilic a-helical cationic host derived antimicrobial peptide (LLGDFFRKSKEKIGKEFKRIVQRIKDFLRNLVPRTES; Antibacterial peptide LL-37; UniProt P49913 134-170, looked up) [reference compound] |  |  |  |  |  |  | P. aeruginosa killing, influence of physiologic NaCl (Pseudomonas aeruginosa [1]): not affected by NaCl inclusion |
| LLP1: prototypical lentiviral lytic peptide, amino acids 828-856 of the HIV-1 viral isolate HXB2R Env (SEQ ID NO: 19) (RVIEVVQGACRAIRHIPRRIRQGLERIL; Human immunodeficiency virus type 1) [reference compound] | 1000 | 1000 | 8000 nM | 16000 nM | 16000 |  | binding affinity to calmodulin [4]: near nanomolar affinity; antibacterial activity compared with magainin-2 [5]: equal to, or more potent than magainin-2; time to nearly sterilize suspension, P. aeruginosa (Pseudomonas aeruginosa [6]): ≤ 60 s; time to nearly sterilize suspension, S. aureus (Staphylococcus aureus [7]): ≤ 60 s |
| RRVVRRVRRVVRRVVRVVRRVVRR [LBU-2] | 1500 | 800 | 1500 nM |  |  |  |  |
| RRVVRRVRRVVRRVVRVVRRVVRRVRRVVRRVVRVVRRVVRR (RRVVRRVRRVVRRVVRVVRRVVRRVRRVVRRVVRVVRRVVRR; Antimicrobial peptide) [LBU-3.5] | 400 | 400 | 1000 nM | 600 nM | 1500 | 200 |  |
| RVIRVVQRACRAIRHIVRRIRQGLRRIL (RVIRVVQRACRAIRHIVRRIRQGLRRIL; Antimicrobial peptide) [SA-5] | 1000 | 1000 | 1000 nM |  |  |  |  |
| RVIRVVQRACRAIRHIVRRIRQGLRRILRVV [LSA-5, RVIRVVQRACRAIRHIVRRIRQGLRRILRVV] | 800 | 800 | 1000 nM | 1000 nM | 150 |  | reduction of HIV-1 infectivity [8]: drop off this inhibitory activity; bacteria (colony forming units) in joint fluid (S. aureus [9]; 50, 100 and 200 μM intraarticularly, 1 h after instillation, versus non-peptide treated joint, FIG. 11): dose-dependent decrease in colony forming units; also recorded: significantly increases bacterial killing; bacterial load in joint, comparison with 0.35% neomycin (S. aureus [9]; intraarticular at 0, 1 and 2 h, FIG. 12): nearly as effective as a standard concentration of neomycin; adverse toxicity in animal experiments (S. aureus [9]; peptide administered alone, intraarticular): no adverse toxicity was observed; bacterial load in joint (S. aureus [9]; two treatments of 150 μM at 0 and 1 h, 1 h post-treatment, versus phosphate buffer): significant decrease; activity against S. epidermidis in vitro (S. epidermidis): highly active; concentration at which peptide is still active in synovial fluid (S. aureus [10]; 1:4 dilution of human synovial fluid, FIG. 10): 128 µM; effect of synovial fluid on activity (S. aureus [10]; versus phosphate buffer containing physiologic NaCl): clearly impairs the activity; passages of bacterial suspension over which the column maintained activity (P. aeruginosa): up to 6 passages |
| RVVRVVRRVVRRVRRVVRRVVRVVRRVVRRVRRVVRRVVRVVRRVVRR [LBU-4] | 800 | 400 | 800 nM | 800 nM |  |  |  |
| RVVRV VRRWV RR (RVVRVVRRWVRR; Antimicrobial peptide) [WLBU-1] | 400 | 2500 | 30,000 nM | 10,000 nM | 50,000 | 50,000 |  |
| RVVRVVRRWVRRVRRVWRRVVRVVRRWVRRVRRVWRRVVRVVRRWRVV (RVVRVVRRWVRRVRRVWRRVVRVVRRWVRRVRRVWRRVVRVVRRWRVV; Antimicrobial peptide) [WLBU-4] | 1500 | 400 | 3,000 nM | 600 nM | 1500 | 200 |  |
| RWIRVVQRWCRAIRHIWRRIRQGLRRWLRVV [WLSA-5, RWIRVVQRWCRAIRHIWRRIRQGLRRWLRVV] | 1000 | 1000 | 1000 nM | 1000 nM | 150 |  | P. aeruginosa killing, influence of physiologic NaCl (Pseudomonas aeruginosa [1]): not affected by NaCl inclusion; also recorded: maintained its activity in low and physiologic salt conditions; S. aureus killing, influence of physiologic NaCl (Staphylococcus aureus [2]; phosphate buffer with 150 mM NaCl versus low salt): not influenced by NaCl in the same way as LL37; also recorded: maintained its activity in low and physiologic salt conditions; activity against B. cepacia clinical isolate (Burkholderia cepacia): significantly more active than LSA-5; viability of bacteria bound to epithelial cells [11]: decrease in bacterial viability; change in transepithelial resistance ([12]; at a decrease in bacterial counts by two orders of magnitude): less than 50%; effect on trans-epithelial resistance ([12]; compared with LL-37): transient and not significantly different from LL-37 |
| VRRVVRRVVRVVRRVVRRVRRVVRRVVRVV RRVVRR (VRRVVRRVVRVVRRVVRRVRRVVRRVVRVVRRVVRR; Antimicrobial peptide) [LBU-3] | 1500 | 800 | 1500 nM | 1500 nM |  |  |  |
| VRRVWRRVVRVVRRWVRRVRRVWRRVVRVV RRWVRR (VRRVWRRVVRVVRRWVRRVRRVWRRVVRVVRRWVRR; Antimicrobial peptide) [WLBU-3] | 1500 | 800 | 3,000 nM | 600 nM | 400 | 100 |  |
